Measurements published in patent publication US20260234630A1, “Methods for Treating Multiple Myeloma” (Celgene Corporation, priority 2022, published 2026).

Columns and labels:
Type in all cases: cell-based
IRF4 and c-Myc = assay: Western blot of IRF4 and c-Myc in MM cells; conditions: MM1.S, DF15 and U266 cells; 1 μM POM, 3 days
Experimental: FIG. 1A-1F. Down regulation of UHRF1 transcription by IMiDs correlates with drug sensitivity of multiple myeloma. (1A) Volcano plot of protein expression changes determined by mass spectrometry in H929 cells at 24 hr of treatment with CC-220 (0.1 μM) or DMSO control. X axis, Log2fold change (FC); Y axis, significance,-log 10 [p-value]. […] (1B) Volcano plot of gene expression changes determined by Affymetrix microarray in H929 cells treated with POM (1 μM) or DMSO for 24 hr. X axis, Log2fold change (FC); Y axis, significance,-log 10 [p-value], n=2 technical replicates). […] (1C) Western blot analysis protein expression of UHRF1, Ikaros, Aiolos and ZFP91 in H929 cells treated with 1 μM POM for indicated time. (1D) qRT-PCR analysis of UHRF1 gene expression levels in cells as in (1C). Error bars represent the SEM from duplicate measurements. (1E) Western blot analysis protein expression of UHRF1 and indicated proteins in MM cells treated with DMSO (−) or 1 μM POM (+) for 3 days. GAPDH serves as a loading control. […]
Cells were lysed with cell lysis buffer (50 mM TrisHCl pH7.4, 250 mM NaCl, 0.5% Triton X100, 10% glycerol) supplemented with protease inhibitor cocktail. […] The protein concentration was measured by a Bradford Protein Assay (Bio-Rad). […] Proteins of interested were detected incubation with primary antibodies listed below at 4° C. overnight. […]

H3K27ac at UHRF1 TSS = assay: ChIP-qPCR of H3K27ac occupancy at UHRF1 gene; conditions: H929 and MM1.S cells, 1 μM POM, 24 hr
Experimental: FIG. 2A-2E. UHRF1 expression is positively regulated by Ikaros and Aiolos in IMiDs sensitive MM cells. (2A) Western blot analysis protein expression of UHRF1, Ikaros, Aiolos, ZFP91 and Cereblon expression in control [shLuciferase (shLuc)] and cereblon knockdown (shCRBN) H929 cells treated with DMSO and 1 μM POM for 3 days. GAPDH, loading control. Arrow head, UHRF1. (2B) qRT-PCR analysis of UHRF1 gene expression levels in cells as in (2A). Data was normalized to ACTB. Error bars represent the SEM of technical duplicates. *** P<0.001 (Two-tailed unpaired Student's t-test). […]
ChIP-qPCR was performed using ChIP-IT Express Enzymatic kit (Active Motif) according to the manufacture manual with some modifications. […] DNA was purified using a PCR purification kit (Qiagen) and analyzed by qPCR using the Power SYBR Green PCR Master Mix.
Procedures afterward were performed according to the manufacture manual. Eluted DNA was purified using a PCR purification kit (Qiagen) and analyzed by quantitative real-time PCR on the Viia 7 Real Time PCR System using the Power SYBR Green PCR master mix (Applied Biosystems). Statistical differences were calculated using a […] unpaired Student's t-test.

UHRF1 = assay: Immunocytochemistry assay of UHRF1 in H929 cells; conditions: 48 hours after 1 μM POM
Experimental: FIG. 6A-6D. […] (6A) Immunocytochemistry assay of UHRF1 in H929 cells treated with DMSO or 1 μM POM for 48 hrs. (6B) qRT-PCR analysis of UHRF1 gene expression levels in indicated MM cells treated with indicated doses of POM for 3 days. Data was normalized to ACTB. Error bars represent the SEM from duplicate measurements. * P<0.05, ** P<0.01, *** P<0.001, **** P<0.0001 (Two-tailed Student's t-test). (6C) Western blot analysis protein expression of UHRF1, Ikaros, Aiolos, ZFP91 and Celebron in H929 cells treated with 1 μM POM or 0.1 μM CC-220 for 3 days. DMSO, vehicle control. (6D) Western blot analysis protein expression of UHRF1, Ikaros, Aiolos, ZFP91 and Celebron in H929 or RPMI 8226 cells treated with 1 μM POM, 0.1 μM CC-220 or 0.01 μM CC-480 for 3 days. DMSO, vehicle control.

In the case of `Nc1cccc2c1C(=O)N(C1CCC(=O)NC1=O)C2=O` (stereo not drawn) [POM, pomalidomide], the “IRF4 and c-Myc expression” value (IRF4 and c-Myc) is reported as “downregulated”, the “H3K27ac level at the UHRF1 TSS” value (H3K27ac at UHRF1 TSS) is reported as “drastically reduced” and the “UHRF1 protein by immunocytochemistry” value (UHRF1) is reported as “nearly undetectable”.
